Where “and” joins values, the source holds several entries; their conditions need not be identical. Equal entries are not always repeated. Toxic doses and inconclusive results are not listed. Cut-off read from the data, not from the text of the source: active = T/C of 150% or more; inactive = T/C below 125%.
Test system: L1210 leukemia ip in BDF1 mice, survival T/C
Experiment: NCI In Vivo Anticancer Drug Screen. Data for tumor model L1210 Leukemia (intraperitoneal) in B6D2F1 (BDF1) mice
Conditions: endpoint: mean survival time, higher = longer survival
Method in brief: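 Transplantable tumor model; survival measured in treated vs vehicle control mice. Value = treated/control.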

[1] = dose: 100.0 mg/kg/injection, schedule: Q04DX002 (ip), vehicle: Klucel (hydroxypropylcellulose) (HPC)
[2] = dose: 200.0 mg/kg/injection, schedule: Q04DX002 (ip), vehicle: Klucel (hydroxypropylcellulose) (HPC)
[3] = dose: 100.0 mg/kg/injection, schedule: Q04DX002 (ip), vehicle: saline
[4] = dose: 100.0 mg/kg/injection, schedule: Q04DX003 (ip), vehicle: saline
[5] = dose: 200.0 mg/kg/injection, schedule: Q04DX002 (ip), vehicle: saline
[6] = dose: 200.0 mg/kg/injection, schedule: Q04DX003 (ip), vehicle: saline
[7] = dose: 400.0 mg/kg/injection, schedule: Q04DX002 (ip), vehicle: saline
[8] = dose: 100.0 mg/kg/injection, schedule: Q04DX003 (ip), vehicle: saline with Tween-80
[9] = dose: 200.0 mg/kg/injection, schedule: Q04DX003 (ip), vehicle: saline with Tween-80
[10] = dose: 400.0 mg/kg/injection, schedule: Q04DX003 (ip), vehicle: saline with Tween-80
[11] = dose: 100.0 mg/kg/injection, schedule: Q01DX001 (ip), vehicle: carboxymethylcellulose (CMC)
[12] = dose: 200.0 mg/kg/injection, schedule: Q01DX001 (ip), vehicle: carboxymethylcellulose (CMC)
[13] = dose: 400.0 mg/kg/injection, schedule: Q01DX001 (ip), vehicle: carboxymethylcellulose (CMC)
[14] = dose: 100.0 mg/kg/injection, schedule: Q01DX009 (ip), vehicle: saline with Tween-80
[15] = dose: 200.0 mg/kg/injection, schedule: Q01DX009 (ip), vehicle: saline with Tween-80
[16] = dose: 400.0 mg/kg/injection, schedule: Q01DX009 (ip), vehicle: saline with Tween-80
[17] = dose: 100.0 mg/kg/injection, schedule: Q04DX003 (ip), vehicle: Klucel (hydroxypropylcellulose) (HPC)
[18] = dose: 200.0 mg/kg/injection, schedule: Q04DX003 (ip), vehicle: Klucel (hydroxypropylcellulose) (HPC)
[19] = dose: 400.0 mg/kg/injection, schedule: Q04DX003 (ip), vehicle: Klucel (hydroxypropylcellulose) (HPC)

Measured: T/C

O=C(N1CCC(CCCc2ccccc2)CC1)C(Cl)(Cl)Cl
inactive: [1] 95 % of control | [2] 95 % of control | dose: 400.0 mg/kg/injection, schedule: Q04DX002 (ip), vehicle: Klucel (hydroxypropylcellulose) (HPC) 100 % of control

C[N+]1(CC(O)COc2ccc(Nc3ccc(N)c4c3C(=O)c3ccccc3C4=O)cc2)CCOCC1 (stereo not given)
inactive: dose: 100.0 mg/kg/injection, schedule: Q01DX001 (ip), vehicle: acetone 90 % of control

CCCN
inactive: dose: 100.0 mg/kg/injection, schedule: Q01DX001 (ip), vehicle: saline 107 % of control | dose: 100.0 mg/kg/injection, schedule: Q01DX009 (ip), vehicle: saline 106 % of control and 107 % of control | [3] 103 % of control and 108 % of control | [4] 103 % of control | dose: 200.0 mg/kg/injection, schedule: Q01DX001 (ip), vehicle: saline 100 % of control | dose: 200.0 mg/kg/injection, schedule: Q01DX009 (ip), vehicle: saline 93 % of control and 109 % of control | [5] 99 % of control and 106 % of control | [6] 96 % of control | dose: 400.0 mg/kg/injection, schedule: Q01DX001 (ip), vehicle: saline 105 % of control | dose: 400.0 mg/kg/injection, schedule: Q01DX009 (ip), vehicle: saline 111 % of control and 117 % of control | [7] 105 % of control and 108 % of control | dose: 400.0 mg/kg/injection, schedule: Q04DX003 (ip), vehicle: saline 96 % of control

O=C1c2ccccc2C2C(=O)c3ccccc3C12 (stereo not given)
inactive: [8] 98 % of control | [9] 96 % of control | [10] 95 % of control

O=C(Oc1ccccc1[N+](=O)[O-])Oc1ccccc1[N+](=O)[O-]
inactive: [11] 96 % of control | [12] 93 % of control | [13] 104 % of control

O=C(CI)Nc1ccc(O)c2ccccc12
inactive: dose: 3.12 mg/kg/injection, schedule: Q04DX003 (ip), vehicle: water 111 % of control and 86 % of control | dose: 6.25 mg/kg/injection, schedule: Q01DX009 (ip), vehicle: water 99 % of control | dose: 6.25 mg/kg/injection, schedule: Q04DX003 (ip), vehicle: water 121 % of control and 91 % of control | dose: 12.5 mg/kg/injection, schedule: Q01DX009 (ip), vehicle: water 86 % of control | dose: 75.0 mg/kg/injection, schedule: Q04DX003 (ip), vehicle: water 93 % of control

COC(=O)/C=C1\C(C(=O)OC)=Cc2ccccc2N1C
inactive: [14] 97 % of control | [8] 98 % of control | [15] 91 % of control | [9] 98 % of control | [16] 94 % of control | [10] 96 % of control

CC(=O)C[n+]1ccccc1Br
inactive: dose: 62.0 mg/kg/injection, schedule: Q01DX015 (ip), vehicle: water 87 % of control | dose: 125.0 mg/kg/injection, schedule: Q01DX015 (ip), vehicle: water 100 % of control

CCCCN(C)N=Nc1ccccc1C(=O)NN
inactive: [11] 96 % of control | [12] 107 % of control | [13] 113 % of control

CC(=O)OCC/[N+]([O-])=C\c1ncc([N+](=O)[O-])n1C
inactive: [3] 100 % of control | [5] 114 % of control | [7] 100 % of control

CC(=O)OC1CCC2CCCCC2/C1=N\O (stereo not given)
inactive: dose: 50.0 mg/kg/injection, schedule: Q04DX003 (ip), vehicle: saline 112 % of control | [4] 95 % of control | [6] 97 % of control

O=C(NCc1ccco1)Nc1ccc([N+](=O)[O-])cc1
inactive: dose: 222.0 mg/kg/injection, schedule: Q01DX Z (ip), vehicle: methylcellulose (MC) 101 % of control | dose: 333.0 mg/kg/injection, schedule: Q01DX Z (ip), vehicle: methylcellulose (MC) 94 % of control | dose: 500.0 mg/kg/injection, schedule: Q01DX Z (ip), vehicle: methylcellulose (MC) 96 % of control

CC1(C)N=C(N)N=C(N)N1c1cccc(OCCCOc2cccc([N+](=O)[O-])c2)c1
inactive: dose: 5.0 mg/kg/injection, schedule: Q01DX001 (ip), vehicle: saline 100 % of control | dose: 10.0 mg/kg/injection, schedule: Q01DX001 (ip), vehicle: saline 97 % of control | dose: 20.0 mg/kg/injection, schedule: Q01DX001 (ip), vehicle: saline 97 % of control | dose: 40.0 mg/kg/injection, schedule: Q01DX001 (ip), vehicle: saline 100 % of control | dose: 80.0 mg/kg/injection, schedule: Q01DX001 (ip), vehicle: saline 95 % of control

CN(N)C(=O)Nc1ccc(Br)cc1
inactive: dose: 75.0 mg/kg/injection, schedule: Q01DX001 (ip), vehicle: carboxymethylcellulose (CMC) 104 % of control | dose: 150.0 mg/kg/injection, schedule: Q01DX001 (ip), vehicle: carboxymethylcellulose (CMC) 100 % of control | dose: 300.0 mg/kg/injection, schedule: Q01DX001 (ip), vehicle: carboxymethylcellulose (CMC) 98 % of control

CCCNC(=O)Oc1ccc(C2CCCCC2)cc1
inactive: dose: 100.0 mg/kg/injection, schedule: Q01DX001 (ip), vehicle: other 100 % of control | dose: 100.0 mg/kg/injection, schedule: Q01DX009 (ip), vehicle: other 104 % of control and 87 % of control | [1] 110 % of control | dose: 100.0 mg/kg/injection, schedule: Q04DX002 (ip), vehicle: other 105 % of control and 109 % of control | dose: 100.0 mg/kg/injection, schedule: Q04DX003 (ip), vehicle: other 100 % of control | dose: 200.0 mg/kg/injection, schedule: Q01DX001 (ip), vehicle: other 100 % of control | dose: 200.0 mg/kg/injection, schedule: Q01DX009 (ip), vehicle: other 103 % of control and 111 % of control | [2] 100 % of control | dose: 200.0 mg/kg/injection, schedule: Q04DX002 (ip), vehicle: other 95 % of control and 111 % of control | dose: 200.0 mg/kg/injection, schedule: Q04DX003 (ip), vehicle: other 102 % of control | dose: 400.0 mg/kg/injection, schedule: Q01DX001 (ip), vehicle: other 97 % of control | dose: 400.0 mg/kg/injection, schedule: Q01DX009 (ip), vehicle: other 101 % of control and 112 % of control | dose: 400.0 mg/kg/injection, schedule: Q04DX002 (ip), vehicle: other 95 % of control and 107 % of control | dose: 400.0 mg/kg/injection, schedule: Q04DX003 (ip), vehicle: other 104 % of control

CC(C)=NNC(=O)c1ccc(Cl)cc1
inactive: [14] 95 % of control | [15] 106 % of control | [16] 116 % of control

CC1(C)OC2OC(CO)C(O)C(O)C2O1 (stereo not given)
inactive: [3] 94 % of control | [5] 94 % of control | [7] 94 % of control

O=C(Nc1cccc(Cl)c1)c1ccccc1
inactive: dose: 100.0 mg/kg/injection, schedule: Q01DX009 (ip), vehicle: Klucel (hydroxypropylcellulose) (HPC) 94 % of control | [17] 92 % of control | dose: 200.0 mg/kg/injection, schedule: Q01DX009 (ip), vehicle: Klucel (hydroxypropylcellulose) (HPC) 94 % of control | [18] 90 % of control | dose: 400.0 mg/kg/injection, schedule: Q01DX009 (ip), vehicle: Klucel (hydroxypropylcellulose) (HPC) 97 % of control | [19] 101 % of control

O=C(O)C1CC(c2ccccc2)=NN1c1ccccc1 (stereo not given)
inactive: dose: 100.0 mg/kg/injection, schedule: Q01DX001 (ip), vehicle: Klucel (hydroxypropylcellulose) (HPC) 104 % of control | dose: 200.0 mg/kg/injection, schedule: Q01DX001 (ip), vehicle: Klucel (hydroxypropylcellulose) (HPC) 90 % of control | dose: 400.0 mg/kg/injection, schedule: Q01DX001 (ip), vehicle: Klucel (hydroxypropylcellulose) (HPC) 93 % of control

COC(=O)c1c(Cl)c(Cl)cc(Cl)c1Cl
inactive: dose: 100.0 mg/kg/injection, schedule: Q01DX009 (ip), vehicle: saline sonified 106 % of control | [17] 93 % of control | dose: 200.0 mg/kg/injection, schedule: Q01DX009 (ip), vehicle: saline sonified 113 % of control | [18] 98 % of control | dose: 400.0 mg/kg/injection, schedule: Q01DX009 (ip), vehicle: saline sonified 107 % of control | [19] 106 % of control
